# Entries after “also recorded” stand apart in the source; their conditions may differ.
# How the values were obtained:
# [1] = Solubility of mometasone furoate in solvents of prior art formulations; assay type: physicochemical
# Description: Dissolution studies were performed with mometasone furoate in both the oil phase and the aqueous phase of the DIPA-containing lotion formulations of Examples 3 and 9 of DE102006034883 to determine the solubility of mometasone furoate in mg/ml in said formulations. For this purpose, first, the liquid excipients of the oil phase and the aqueous phase were mixed in the correct relative amounts to form the respective solvent systems; the low amounts of solid excipients contained in the formulations were not considered. Based on the weight ratio between oil and water phase, the theoretical solubility of mometasone furoate in the complete formulation can then be estimated using the formula: [proportion of oil phase·solubility in oil phase]+[proportion of aqueous phase·solubility in aqueous phase] For instance, for Ex. 3 of DE102006034883, the oil phase (paraffinum liquidum) makes up about 20 wt. %, the remainder is the aqueous phase. […] For instance, for Ex. 9 of DE102006034883, the oil phase makes up 27.88 wt. %, the remainder is the aqueous phase.
# [2] = Re-precipitation of mometasone furoate in solvent systems of Ex. 10 and 11 of DE102006034883; assay type: physicochemical; details: then 40.56 parts of water
# Description: Similar to Example 7 above, dissolution behaviour of mometasone furoate was also tested for the DIPA-containing prior art cream formulations described in examples 10 and 11 of DE102006034883. For this purpose, mometasone furoate was dissolved in solvent systems based on Ex. 10 and 11 as follows:
# Ex. 10: 0.1 parts mometasone furoate were dissolved in 1 part phenoxy ethanol and 10 parts hexylene glycol, resulting in a clear solution.
# Ex. 11: 0.1 parts mometasone furoate were dissolved in 1 part phenoxy ethanol and 10 parts diethylene glycol monoethyl ether (Transcutol®), resulting in a clear solution.
# [3] = cited from earlier work
compound,measurement,setting,value
"C[C@@H]1C[C@H]2[C@@H]3CCC4=CC(=O)C=C[C@]4(C)[C@@]3(Cl)[C@@H](O)C[C@]2(C)[C@@]1(OC(=O)c1ccco1)C(=O)CCl [mometasone furoate, 9α,21-dichloro-11β,17α-dihydroxy-16α-methylpregna-1,4-diene-3,20-dione 17-(2-furoate)]",solubility in liquid paraffin,[1],about 0.05 mg/mL
same,Solubility of mometasone furoate,"[1]; Aqueous phase Ex. 3 of DE102006034883 (phenoxy ethanol, polysorbate 40, Transcutol, water)",150 µg/mL
same,Solubility of mometasone furoate,"[1]; Aqueous phase Ex. 9 of DE102006034883 (phenoxy ethanol, Steareth 21, hexylene glycol, water)",90 µg/mL
same,Solubility of mometasone furoate,[1]; Oil phase Ex. 3 of DE102006034883 (liquid paraffin),50 µg/mL
same,Solubility of mometasone furoate,"[1]; Oil phase Ex. 9 of DE102006034883 (MCT, DIPA, liquid paraffin, Capryol 90)",830 µg/mL
same,overall theoretical solubility,[1]; complete formulation Ex. 3 of DE102006034883,about 0.13 mg/ml
same,overall theoretical solubility,[1]; complete formulation Ex. 9 of DE102006034883,about 0.293 mg/ml
same,behaviour on addition of aqueous phase,"[2]; Ex. 10 solvent system: phenoxy ethanol, hexylene glycol",precipitation of mometasone furoate; also recorded: precipitated
same,behaviour on addition of aqueous phase,"[2]; Ex. 11 solvent system: phenoxy ethanol, Transcutol®",precipitation of mometasone furoate; also recorded: precipitated
same,log P,[3],about 4
same,water solubility,[3],about 0.95 μg/mL
